The structures appear in SMILES notation.

The record followed here is patent publication US20110269811A1, “INHIBITORS OF SEMICARBAZIDE-SENSITIVE AMINE OXIDASE (SSAO) AND VAP-1 MEDIATED ADHESION USEFUL FOR TREATMENT AND PREVENTION OF DISEASES” (priority 2006, published 2011).

For assay [1], the system named is antibody-mediated collagen-induced arthritis. In words: Anti-collagen antibody-induced arthritis in mice. Type of assay: in vivo. The following applies: 30 mg/kg, i.p., once daily, days 1-10; FIG. 4. The text has this: Collagen-induced arthritis (CIA) in mice is widely used as an experimental model for rheumatoid arthritis (RA) in humans. CIA is mediated by autoantibodies to a particular region of type II collagen and complement. The murine CIA model used in this study is called antibody-mediated CIA, and can be induced by i.v. injection of a combination of different anti-type II collagen monoclonal antibodies (Terato K., et al. (1995). Autoimmunity. 22:137). Several compounds have been used to successfully block inflammation in this model, including anti-α1β1 and […] integrins monoclonal antibodies (de Fougerolles A. R. (2000) J. Clin. Invest. 105: 721).
In this example, arthrogen-collagen-induced arthritis antibody kits were purchased from Chemicon International (Temecula, Calif.) and arthritis was induced using the manufacturer's protocol. Mice were injected i.v. with a cocktail of 4 anti-collagen Type II monoclonal antibodies (1.5 mg each) on day 0, followed by i.p. injection of 25 μg lipopolysaccharide (LPS) on day 2. […] Severity of arthritis in each limb was scored for 3-4 weeks as follows: 0=normal; 1=mild redness, slight swelling of ankle or wrist; 2=moderate redness and swelling of ankle or wrist; 3=severe redness and swelling of some digits, ankle and paw; 4=maximally inflamed limb, with a maximum score of 16 per animal. […]

For assay [2], the system named is collagen-induced arthritis. In words: Collagen-induced arthritis by direct injection of Type II collagen. Type of assay: in vivo, B10RIII mice. The settings on record: FIG. 15. As to the method:
Collagen-induced arthritis can also be induced by direct injection of collagen. Groups of 15 male B10RIII mice were injected intradermally with Type II collagen in Complete Freund Adjuvant (CFA) on days 0 and 15. Mice were dosed p.o. starting from day 0 to day 28 with phosphate buffered saline (PBS), 5 mg/kg compound I-1-Z, 30 mg/kg compound I-1-Z or 0.2 mg/kg dexamethasone. […] Clinical scores were determined daily for each paw based on a scale between 0-5 based on joint erythema and swelling. Statistical analysis was by Student's t-test versus the PBS-treated disease control group.

The target of another assay is T1, A1 (h) (Homo sapiens, UniProt P30542).
T1 construct: expressed in transfected cells; host or cells: CHO cells
Nature of the assay: Receptor binding screen, [^3H]DPCPX. The following applies: 10 uM Concentration of Compound I-1-Z; read-out: Mean Value, percent inhibition of control specific binding: A1 (h).

In a further assay the target is T2, β2 (h) (Homo sapiens, UniProt P07550).
T2 construct: expressed in transfected cells; host or cells: Sf9 cells
Nature of the assay: Receptor binding screen, [^3H](−)CGP 12177. The following applies: 10 uM Concentration of Compound I-1-Z; read-out: Mean Value, percent inhibition of control specific binding: β2 (h).

The target in the next assay is T3, CB1 (h) (Homo sapiens, UniProt P21554).
T3 construct: expressed in transfected cells; host or cells: CHO cells
Nature of the assay: Receptor binding screen, [^3H]CP 55940. The following applies: 10 uM Concentration of Compound I-1-Z; read-out: Mean Value, percent inhibition of control specific binding: CB1 (h).

Another assay concerns the target T4, GAL2 (h) (Homo sapiens, UniProt O43603).
T4 construct: expressed in transfected cells; host or cells: CHO cells
In words: Receptor binding screen, [^125I]galanin. The settings on record: 10 uM Concentration of Compound I-1-Z; read-out: Mean Value, percent inhibition of control specific binding: GAL2 (h).

A further assay concerns TNF-α (h). Nature of the assay: Receptor binding screen, [^125I]TNF-α, U-937 cells. The arrangement: species or system human. The settings on record: 10 uM Concentration of Compound I-1-Z.
A further assay concerns the target T5, H1 (h) (Homo sapiens, UniProt P35367).
T5 construct: expressed in transfected cells; host or cells: HEK-293 cells
Nature of the assay: Receptor binding screen, [^3H]pyrilamine. The settings on record: 10 uM Concentration of Compound I-1-Z; read-out: Mean Value, percent inhibition of control specific binding: H1 (h).

A further assay deals with T6, NK3 (h) (Homo sapiens, UniProt P29371).
T6 construct: expressed in transfected cells; host or cells: CHO cells
In words: Receptor binding screen, [^3H]SR 142801. The settings on record: 10 uM Concentration of Compound I-1-Z; read-out: Mean Value, percent inhibition of control specific binding: NK3 (h).

Assay [3] deals with T7, μ (h) (MOP) (agonist site) (Homo sapiens, UniProt P35372).
T7 construct: expressed in transfected cells; host or cells: HEK-293 cells
Nature of the assay: Receptor binding screen, [^3H]DAMGO. The following applies: 10 uM Concentration of Compound I-1-Z; read-out: Mean Value, percent inhibition of control specific binding: μ (h) (MOP) (agonist site). As to the method: For Table 4 below, the specific ligand binding to the receptors is defined as the difference between the total binding and the nonspecific binding determined in the presence of an excess of unlabelled ligand. The results are expressed as a percent inhibition of control specific binding obtained in the presence of Compound I-1-Z. The IC50 values (concentration causing a half-maximal inhibition of control specific binding) and Hill coefficients (nH) were determined by non-linear regression analysis of the competition curves using Hill equation curve fitting. The inhibition constants (Ki) were calculated from the Cheng Prusoff equation (Ki=IC50/(1+(L/KD)), where L=concentration of radioligand in the assay, and KD=affinity of the radioligand for the receptor). In each experiment, the respective reference compound was tested concurrently with Compound I-1-Z in order to assess the assay suitability.

The target of a further assay is T8, 5-HT6 (h) (Homo sapiens, UniProt P50406).
T8 construct: expressed in transfected cells; host or cells: CHO cells
In words: Receptor binding screen, [^3H]LSD. The following applies: 10 uM Concentration of Compound I-1-Z; read-out: Mean Value, percent inhibition of control specific binding: 5-HT6 (h).

The target in a further assay is T9, VIP1 (h) (VPAC1) (Homo sapiens, UniProt P32241).
T9 construct: expressed in transfected cells; host or cells: CHO cells
Nature of the assay: Receptor binding screen, [^125I]VIP. The following applies: 10 uM Concentration of Compound I-1-Z; read-out: Mean Value, percent inhibition of control specific binding: VIP1 (h) (VPAC1).

Another assay has as its target T10, V1a (h) (Homo sapiens, UniProt P37288).
T10 construct: expressed in transfected cells; host or cells: CHO cells
Nature of the assay: Receptor binding screen, [^3H]AVP. The settings on record: 10 uM Concentration of Compound I-1-Z; read-out: Mean Value, percent inhibition of control specific binding: V1a (h).

Another assay concerns K^+V channel. In words: Receptor binding screen, [^125I]α-dendrotoxin. The arrangement: species or system rat. The following applies: 10 uM Concentration of Compound I-1-Z.

T7 sequence (P35372 whole entry): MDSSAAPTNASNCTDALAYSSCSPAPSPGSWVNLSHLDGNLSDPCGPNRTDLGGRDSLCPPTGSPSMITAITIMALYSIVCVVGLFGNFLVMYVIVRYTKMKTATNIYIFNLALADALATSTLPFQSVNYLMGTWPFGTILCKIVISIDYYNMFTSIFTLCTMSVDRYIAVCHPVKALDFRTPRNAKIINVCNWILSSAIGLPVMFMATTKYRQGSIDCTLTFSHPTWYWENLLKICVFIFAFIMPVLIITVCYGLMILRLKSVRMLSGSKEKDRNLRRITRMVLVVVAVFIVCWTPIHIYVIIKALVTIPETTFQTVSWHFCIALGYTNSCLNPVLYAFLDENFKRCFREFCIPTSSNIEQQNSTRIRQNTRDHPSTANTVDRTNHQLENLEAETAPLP
T9 sequence (P32241 31-457): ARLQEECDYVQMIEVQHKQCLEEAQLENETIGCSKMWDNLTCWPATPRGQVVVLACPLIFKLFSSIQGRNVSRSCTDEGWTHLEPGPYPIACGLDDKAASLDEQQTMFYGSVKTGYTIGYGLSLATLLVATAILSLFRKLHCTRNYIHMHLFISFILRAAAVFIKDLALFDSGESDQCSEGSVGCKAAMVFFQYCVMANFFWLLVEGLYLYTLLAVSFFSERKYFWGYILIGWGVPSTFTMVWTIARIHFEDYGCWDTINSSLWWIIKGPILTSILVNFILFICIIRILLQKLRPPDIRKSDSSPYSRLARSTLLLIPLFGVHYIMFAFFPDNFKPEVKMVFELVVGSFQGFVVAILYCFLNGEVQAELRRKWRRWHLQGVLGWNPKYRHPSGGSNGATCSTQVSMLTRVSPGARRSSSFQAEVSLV
T10 sequence (P37288 whole entry): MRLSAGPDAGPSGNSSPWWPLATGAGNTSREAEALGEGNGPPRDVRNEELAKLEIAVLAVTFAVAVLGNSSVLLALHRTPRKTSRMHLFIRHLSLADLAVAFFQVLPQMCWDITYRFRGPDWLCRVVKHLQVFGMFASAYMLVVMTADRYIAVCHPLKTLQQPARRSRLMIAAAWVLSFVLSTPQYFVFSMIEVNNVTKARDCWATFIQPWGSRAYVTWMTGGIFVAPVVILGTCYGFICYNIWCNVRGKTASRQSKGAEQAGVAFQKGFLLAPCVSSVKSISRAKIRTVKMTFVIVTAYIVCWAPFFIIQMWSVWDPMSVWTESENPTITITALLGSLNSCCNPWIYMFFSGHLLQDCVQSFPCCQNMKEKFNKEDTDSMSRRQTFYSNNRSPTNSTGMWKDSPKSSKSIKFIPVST
T5 sequence (P35367 whole entry): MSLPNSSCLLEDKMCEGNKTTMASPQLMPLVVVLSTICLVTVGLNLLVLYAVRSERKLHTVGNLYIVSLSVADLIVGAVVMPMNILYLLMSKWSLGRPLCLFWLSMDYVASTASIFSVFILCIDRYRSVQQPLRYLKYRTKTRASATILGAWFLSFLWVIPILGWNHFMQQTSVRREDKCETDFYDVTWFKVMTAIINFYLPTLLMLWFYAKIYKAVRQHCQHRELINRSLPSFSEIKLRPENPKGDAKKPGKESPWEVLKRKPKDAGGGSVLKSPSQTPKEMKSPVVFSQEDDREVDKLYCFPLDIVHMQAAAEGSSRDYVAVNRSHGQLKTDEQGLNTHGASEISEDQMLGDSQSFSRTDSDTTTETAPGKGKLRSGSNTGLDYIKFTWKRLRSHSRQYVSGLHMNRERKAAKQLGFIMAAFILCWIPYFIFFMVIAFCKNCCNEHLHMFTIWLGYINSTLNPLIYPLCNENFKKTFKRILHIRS
T8 sequence (P50406 whole entry): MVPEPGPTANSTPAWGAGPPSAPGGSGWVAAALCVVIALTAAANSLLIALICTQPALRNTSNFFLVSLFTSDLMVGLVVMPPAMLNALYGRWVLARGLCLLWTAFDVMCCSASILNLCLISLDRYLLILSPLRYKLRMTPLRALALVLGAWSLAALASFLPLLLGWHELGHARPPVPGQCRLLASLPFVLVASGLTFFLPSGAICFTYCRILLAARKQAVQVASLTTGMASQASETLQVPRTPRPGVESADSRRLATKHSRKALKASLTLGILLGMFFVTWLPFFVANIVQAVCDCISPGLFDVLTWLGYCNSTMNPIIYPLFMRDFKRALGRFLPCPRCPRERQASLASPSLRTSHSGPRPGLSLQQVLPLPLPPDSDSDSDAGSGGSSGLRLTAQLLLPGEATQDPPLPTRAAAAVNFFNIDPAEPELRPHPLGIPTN
T1 sequence (P30542 whole entry): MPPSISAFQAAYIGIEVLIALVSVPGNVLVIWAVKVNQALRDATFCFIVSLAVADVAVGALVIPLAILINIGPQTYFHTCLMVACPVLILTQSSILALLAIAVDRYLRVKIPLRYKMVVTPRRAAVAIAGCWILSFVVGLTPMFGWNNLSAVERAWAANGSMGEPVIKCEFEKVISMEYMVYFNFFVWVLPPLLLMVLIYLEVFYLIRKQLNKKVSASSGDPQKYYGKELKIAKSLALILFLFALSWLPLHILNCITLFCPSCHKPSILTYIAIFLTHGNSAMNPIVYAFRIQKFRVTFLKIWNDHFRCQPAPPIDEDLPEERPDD
T6 sequence (P29371 whole entry): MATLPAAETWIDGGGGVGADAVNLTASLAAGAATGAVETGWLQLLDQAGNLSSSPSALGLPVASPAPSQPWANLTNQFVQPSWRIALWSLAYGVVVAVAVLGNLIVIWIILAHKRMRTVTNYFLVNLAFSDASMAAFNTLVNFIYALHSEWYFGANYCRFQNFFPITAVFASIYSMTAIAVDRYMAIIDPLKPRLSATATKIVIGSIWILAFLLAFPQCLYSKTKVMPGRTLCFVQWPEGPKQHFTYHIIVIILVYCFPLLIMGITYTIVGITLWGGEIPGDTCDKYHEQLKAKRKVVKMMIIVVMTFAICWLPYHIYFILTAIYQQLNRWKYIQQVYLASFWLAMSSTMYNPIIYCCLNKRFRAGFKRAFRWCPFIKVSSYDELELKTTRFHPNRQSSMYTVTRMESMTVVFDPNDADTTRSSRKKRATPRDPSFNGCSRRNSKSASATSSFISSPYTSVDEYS
T3 sequence (P21554 whole entry): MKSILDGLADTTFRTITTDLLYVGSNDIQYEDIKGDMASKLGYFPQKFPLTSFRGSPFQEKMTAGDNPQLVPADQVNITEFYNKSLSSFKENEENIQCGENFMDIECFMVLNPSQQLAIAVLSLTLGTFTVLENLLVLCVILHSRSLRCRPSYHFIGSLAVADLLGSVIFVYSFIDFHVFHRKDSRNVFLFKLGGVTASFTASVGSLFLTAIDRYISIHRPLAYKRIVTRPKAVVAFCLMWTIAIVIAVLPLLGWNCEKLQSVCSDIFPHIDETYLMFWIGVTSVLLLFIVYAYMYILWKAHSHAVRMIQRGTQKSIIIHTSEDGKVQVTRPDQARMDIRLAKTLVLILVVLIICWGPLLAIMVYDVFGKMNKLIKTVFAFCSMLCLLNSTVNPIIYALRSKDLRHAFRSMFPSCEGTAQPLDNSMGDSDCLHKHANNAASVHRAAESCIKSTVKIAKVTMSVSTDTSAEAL
T4 sequence (O43603 whole entry): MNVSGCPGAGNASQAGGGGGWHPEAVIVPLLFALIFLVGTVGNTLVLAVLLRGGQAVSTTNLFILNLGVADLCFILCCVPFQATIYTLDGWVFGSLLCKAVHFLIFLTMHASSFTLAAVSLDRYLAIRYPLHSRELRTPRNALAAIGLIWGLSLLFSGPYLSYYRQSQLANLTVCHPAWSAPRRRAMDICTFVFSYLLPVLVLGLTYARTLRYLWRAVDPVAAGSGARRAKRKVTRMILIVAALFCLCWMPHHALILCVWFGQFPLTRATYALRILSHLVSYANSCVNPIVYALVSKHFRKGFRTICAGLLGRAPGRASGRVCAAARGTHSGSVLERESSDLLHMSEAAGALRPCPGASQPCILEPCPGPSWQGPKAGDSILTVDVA
T2 sequence (P07550 whole entry): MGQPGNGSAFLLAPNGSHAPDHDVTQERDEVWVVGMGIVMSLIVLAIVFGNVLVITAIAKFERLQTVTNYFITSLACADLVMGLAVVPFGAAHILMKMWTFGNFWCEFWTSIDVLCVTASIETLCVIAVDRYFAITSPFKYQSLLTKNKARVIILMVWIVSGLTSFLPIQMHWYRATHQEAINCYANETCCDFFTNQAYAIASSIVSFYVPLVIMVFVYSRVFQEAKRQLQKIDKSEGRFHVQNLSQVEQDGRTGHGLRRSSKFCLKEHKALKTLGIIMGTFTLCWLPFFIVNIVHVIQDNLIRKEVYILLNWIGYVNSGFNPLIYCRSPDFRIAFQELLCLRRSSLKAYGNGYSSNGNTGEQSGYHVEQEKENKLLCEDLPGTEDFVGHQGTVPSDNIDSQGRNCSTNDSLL

For orientation: inhibition means the change of the read-out against control, counted positive when it falls. Take `COc1ccc(C/C(=C/F)CN)cc1.Cl` [Compound I-1-Z, (Z)-3-Fluoro-2-(4-methoxybenzyl)-allylamine hydrochloride]: in assay [1], the “final arthritis score and paw swelling” value was “clearly reduced”. In assay [2] (5 mg/kg p.o. day 0 to day 28), the “incidence of arthritis and clinical scores as compared to PBS” value was “reduced both the incidence of arthritis and the clinical scores”. In addition, the clinical efficacy entry in assay [2] (30 mg/kg p.o. day 0 to day 28) was “no clinical efficacy was observed”. Moreover, the inhibition at 10 µM at A1 (h) was -3%; on β2 (h), 6%; at CB1 (h), 14%; on GAL2 (h), 12%; at H1 (h) it was 3%; on NK3 (h), 1%. Besides, the inhibition at 10 µM in assay [3] was 14%; on 5-HT6 (h) it was 1%; at VIP1 (h) (VPAC1), -13%; at V1a (h) it was 9%. Also, in the assay on TNF-α (h), the “Mean Value, percent inhibition of control specific binding: TNF-α (h)” value was −6%. Besides, in the assay with K^+V channel, the “Mean Value, percent inhibition of control specific binding: K^+V channel” value is recorded as −5%.
